Assay in all cases: NCI tumour cell line growth inhibition, 48 h
The subject of assay [1] is DU-145 prostate.
Assay [2] relates to HOP-92 NSCLC.
Assay [3] concerns M14 melanoma.
For assay [4], the system named is RXF 393 renal.
In assay [5] the test system is T-47D breast.
In assay [6] the test system is HS 578T breast.
The test system of assay [7] is HCC-2998 colon.

Molecules are shown by their SMILES.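 Tested at 5 concentrations; 48 h exposure; 96-well plates; endpoints linearly interpolated, else capped at highest concentration. GI50 = concentration required for 50% inhibition of growth. Definition used: TGI = concentration required for complete inhibition of growth.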 Where a SMILES comes first, the peptide text is derived from it. [ ]: non-standard residue; d: D form. The star is where a group is joined. mTyr = N[CH](Cc1cccc(O)c1)C(=O)O; Cbz = O=C(OCc1ccccc1)*; OBn = c1ccc(CO*)cc1

As for `CC(C)(C)c1cc(C2COC(c3cc(C(C)(C)C)c(O)c(C(C)(C)C)c3)CO2)cc(C(C)(C)C)c1O` (stereo not drawn), the TGI in assay [1], in assay [2], in assay [3], in assay [4], in assay [5] and in assay [6] was > 100 µM in each case.
With `Cc1ccc(N=Nc2c(O)c(C(=O)Nc3ccccc3)cc3ccccc23)c([N+](=O)[O-])c1`, the TGI in assay [1], in assay [2], in assay [3], in assay [4], in assay [5] and in assay [6] was > 100 µM each time.
Turning to `CC[C@@H](/C=C\CCC(=O)C[C@H](O)CCC=C(C)C)O[Si](C(C)C)(C(C)C)C(C)C`, the TGI in assay [1], in assay [2], in assay [3], in assay [4], in assay [5] and in assay [7] was > 100 µM each time. Also, in assay [6], the TGI was > 100 µM.
Regarding `CC(C)[C@@H]1ON1C(C)c1ccccc1` (stereo partly drawn), the TGI in assay [1], in assay [2], in assay [3], in assay [4], in assay [5] and in assay [7] was > 100 µM each time. Further, the TGI in assay [6] is > 100 µM.
Turning to `CCOc1cc(NC(C)=O)ccc1C(=O)NN1C(=O)C(Cl)C1c1ccco1` (stereo not drawn), the TGI in assay [1] was found to be 31.1 µM; in assay [2] it was 35.3 µM; in assay [3], 36.8 µM; in assay [4], 29 µM; in assay [5] it was 40.3 µM; in assay [7], 29.5 µM. Further, the TGI in assay [6] stood at 65.5 µM.
In the case of `C/C(=C/CC[C@]1(CO)CC[C@]2(CO)[C@H](CC[C@@H]3[C@@]4(C)CC[C@H](OC5OCC(O)C(O)C5OC5OC(CO)C(O)C(O)C5O)C(C)(C)[C@@H]4CC[C@]32C)[C@H]1O)CO` (stereo partly drawn), the TGI in assay [1], in assay [2], in assay [3], in assay [4], in assay [5] and in assay [6] was > 100 µM in each case.
On to `CCN(CC)CCNCc1cc(Cl)cc2c1OCOC2`, for which the TGI in assay [1], in assay [3], in assay [4], in assay [5], in assay [7] and in assay [6] was > 10 µM throughout.
In the case of `CCOC(=O)c1ccc(C(=O)C(C(C)=O)C(=O)OC(C)(C)C)[nH]1` (stereo not drawn), the TGI in assay [1], in assay [3], in assay [4], in assay [5], in assay [7] and in assay [6] was > 100 µM throughout.
On to `CN(CCCNC(=O)c1nn(-c2ccc(Cl)cc2Cl)c2c1Cc1ccccc1-2)CCCNC(=O)c1nn(-c2ccc(Cl)cc2Cl)c2c1Cc1ccccc1-2`, for which the TGI came out at 3.18 µM in assay [1]; 3.06 µM in assay [2]; 3.47 µM in assay [3]; 3.76 µM in assay [5]; 3 µM in assay [7].
On to `CNc1ccc(N)cc1C(=O)N1CCC[C@H]1CO`, for which the TGI in assay [1], in assay [3], in assay [4], in assay [5] and in assay [6] was > 100 µM throughout.
Take `O[C@H]1[C@H](O)[C@@H](O)[C@@]2(O)C[C@@H](O)[C@@H]1N2`: the TGI in assay [1], in assay [2], in assay [3], in assay [4], in assay [5] and in assay [7] was > 100 µM each time. The TGI in assay [6] was > 100 µM.
As to `C=CCOC(=O)C1C2OC3(C(C(=O)OC)=C2C(=O)OC)c2ccccc2CCC13` (stereo not drawn), the TGI in assay [1], in assay [3], in assay [4], in assay [5], in assay [7] and in assay [6] was > 10 µM throughout.
Regarding `Cc1ccc2c(=O)cc(-c3ccc(-c4ccccc4)s3)[nH]c2n1`, the TGI in assay [1] was > 100 µM; in assay [2] it was > 85.6 µM; in assay [3], > 100 µM; in assay [4], > 100 µM; in assay [5], > 100 µM; in assay [6], > 72.6 µM.
Regarding `CCNC1=C(NC(=O)CC)C(=O)c2ccccc2C1=O`, the TGI was > 100 µM in assay [1]; > 100 µM in assay [2]; 98.5 µM in assay [3]; > 100 µM in assay [4]; > 100 µM in assay [5]; > 100 µM in assay [7]. Further, in assay [6], the TGI is > 100 µM.
As for `O=C(N/N=C/c1cc(Cl)cc(Cl)c1O)c1ccccc1O`, the GI50 in assay [2] is 3.69 µM. Moreover, the TGI came out at 19.7 µM in assay [2], 4.07 µM in assay [3], 4.97 µM in assay [4] and 14.6 µM in assay [7].
Take `CC(C)(CC(O)C#N)/[N+]([O-])=[N+](\[O-])C(C)(C)CC(O)C#N` (stereo not drawn): the TGI in assay [1] turned out to be 92.9 µM; in assay [2], 41.9 µM; in assay [3], 36.9 µM; in assay [4], 35.4 µM; in assay [5] it was 82.3 µM; in assay [7] it was 34.2 µM. Besides, in assay [6], the TGI was > 100 µM.
In the case of `COC(=O)c1cnn2c1n[n+]([O-])c1ccccc12`, the TGI in assay [1], in assay [2], in assay [3], in assay [4], in assay [5] and in assay [6] was > 100 µM throughout.
For `COc1cc(C(c2ccc3c(c2)OCO3)N2C(=O)CCC2C(=O)O)cc(OC)c1OC` (stereo not drawn), the TGI in assay [1], in assay [2], in assay [3], in assay [5], in assay [7] and in assay [6] was > 100 µM throughout.
As to `COC12c3ccccc3-c3ccccc3C1[C@H]1C(=O)OC(=O)[C@H]12` (stereo partly drawn), the TGI in assay [1], in assay [2], in assay [3], in assay [4], in assay [5] and in assay [7] was > 10 µM in each case. For the same compound, the TGI in assay [6] was > 10 µM.
For the compound `CCC[C@H](C)C[C@H](C)C[C@H](C)/C=C(\C)[C@@H](O)[C@@H](C)C(=O)CC`, the TGI was found to be 43.4 µM in assay [1]; 38.3 µM in assay [2]; 35.7 µM in assay [3]; 40 µM in assay [4]; 50.8 µM in assay [5]; 31.2 µM in assay [7]. The same compound gave a TGI in assay [6] of 51.8 µM.
With `COc1ccc(CSc2ccccc2Cn2cccc2)cc1OC`, the TGI in assay [1], in assay [5] and in assay [7] was > 100 µM throughout.
In the case of `O=C(Nc1cccc(F)c1)c1cc2ccc(O)cc2oc1=Nc1ccccc1F`, the TGI in assay [1] turned out to be 15.1 µM; in assay [3], 17.4 µM; in assay [5], 12.1 µM; in assay [7], 28.7 µM; in assay [6] it was 14.1 µM.
As for `Cc1n[nH]c(=O)n1/N=C/c1ccc([N+](=O)[O-])o1`, the TGI in assay [1] is 22.3 µM; in assay [3] it was 26.6 µM; in assay [4], 17.7 µM; in assay [5], 40.6 µM; in assay [7], 40.7 µM.
Regarding `Nc1nc(Cl)c(N)c(NCC2(CO)CC(CCCc3ccccc3)C2)n1` (stereo not drawn), the TGI was > 100 µM in assay [1]; > 100 µM in assay [2]; > 53.4 µM in assay [3]; > 100 µM in assay [5]; > 100 µM in assay [7]; > 100 µM in assay [6].
Regarding `CCOc1ccc(-n2nnc3c(N)nc(N)nc32)cc1`, the TGI in assay [1], in assay [2], in assay [3] and in assay [5] was > 100 µM each time.
In the case of `Brc1ccc(-c2cn3ccncc3n2)cc1`, the TGI in assay [1], in assay [2], in assay [3], in assay [4], in assay [5] and in assay [6] was > 100 µM each time.
Turning to `Nc1ccc(CCN2CCN(CCCc3ccccc3)CC2)cc1`, the TGI in assay [1] was > 100 µM; in assay [3] it was > 100 µM; in assay [5], 95.8 µM; in assay [7] it was > 100 µM; in assay [6] it was > 100 µM.
In the case of `COc1ccc(-n2cnc3c(NC(CCSC)C(=O)O)ncnc32)cc1` (stereo not drawn), the TGI in assay [1], in assay [2], in assay [3], in assay [5], in assay [7] and in assay [6] was > 100 µM in each case.
For the compound `CC(C)=C/C=C1/CS(=O)(=O)C=C1C`, the TGI in assay [1], in assay [3], in assay [4], in assay [5] and in assay [7] was > 100 µM each time.
In the case of `O=[As](O)(O)c1ccc(N=Nc2ccc(O)cc2)cc1`, the TGI in assay [1], in assay [2], in assay [3], in assay [4], in assay [5] and in assay [6] was > 100 µM in each case.
`COc1ccc(C(=O)c2[nH]c(Nc3ccc(Cl)cc3)c(C(=S)Nc3ccccc3)c2N)cc1`: the TGI in assay [1], in assay [2], in assay [4], in assay [5], in assay [7] and in assay [6] was > 100 µM each time.
On to `CC1(O)OC(=O)C2=C1CCC1C2CCC2(C)C(O)CCC12` (stereo not drawn), for which the TGI in assay [1], in assay [2], in assay [3], in assay [5], in assay [7] and in assay [6] was > 100 µM each time.
On to `C#CCOCC12C=CC(O1)C1C(=O)OCC12` (stereo not drawn), for which the TGI in assay [1], in assay [3], in assay [4], in assay [5], in assay [7] and in assay [6] was > 100 µM in each case.
Take `Fc1ccccc1C1SCc2nc3cc4ccccc4cc3n21` (stereo not drawn): the TGI is > 100 µM in assay [1]; > 100 µM in assay [3]; 80.1 µM in assay [4]; > 100 µM in assay [5]; > 100 µM in assay [7]; 96.4 µM in assay [6].
For `CCOC(=O)[C@H](Cc1ccc(O)cc1)N=C1[C@H]2CCC[C@]1(O)[C@@](C)([N+](=O)[O-])C2`, the TGI in assay [1], in assay [2], in assay [3], in assay [4], in assay [7] and in assay [6] was > 100 µM throughout.
Turning to `COC(=O)C(Cc1cccc(O)c1)NC(=O)C(CC(=O)OCc1ccccc1)NC(=O)OCc1ccccc1` (stereo not drawn) (Cbz-Asp(OBn)-[mTyr]-OMe; configuration not given here), the TGI in assay [2] was > 100 µM; in assay [3] it was > 100 µM; in assay [4], > 100 µM; in assay [5], 59.5 µM; in assay [7], > 100 µM; in assay [6], > 100 µM.
As for `O=C(O)CNC(=O)c1c2ccccc2nc2ccccc12`, the TGI in assay [1], in assay [2], in assay [3] and in assay [7] was > 100 µM each time.
For the compound `CN(C)CCCN1c2ccccc2CCc2ccc([N+](=O)[O-])cc21`, the TGI was 38.6 µM in assay [1]; 30.6 µM in assay [3]; 34.1 µM in assay [5]; 28.5 µM in assay [7]; > 100 µM in assay [6].
Consider `CC(=O)OCC1OC(n2c(=O)[nH]c(=O)c3sccc32)C(Br)C1OC(C)=O` (stereo not drawn), for which the TGI in assay [1], in assay [2], in assay [3], in assay [4], in assay [7] and in assay [6] was > 100 µM throughout.
Turning to `O=C(CC(=O)Nc1ccccc1)N/N=C/c1cc(N=Nc2ccc(Br)cc2)ccc1O`, the TGI in assay [1], in assay [2], in assay [3], in assay [5], in assay [7] and in assay [6] was > 10 µM in each case.
Consider `COc1cccc(NC(=O)C(C#N)=C(SC)SC)c1`, for which the TGI in assay [2], in assay [3], in assay [4], in assay [7] and in assay [6] was > 100 µM each time.
